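Values below derive from 48-hour exposures of cells grown in 96-well plates, with endpoints linearly interpolated between the two concentrations bracketing the appropriate inhibition level. GI50: concentration for 50% inhibition of growth. TGI denotes the concentration required for complete inhibition of growth.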

This is an account of results in PubChem BioAssay (NCI).

Among the test systems are LOX IMVI melanoma; ACHN renal; SF-268 CNS; M14 melanoma; IGROV1 ovarian; UO-31 renal; MOLT-4 leukemia; MALME-3M melanoma; SNB-75 CNS; NCI-H226 lung.
Assay in all cases: NCI tumour cell line growth inhibition, 48 h

Take `c1ccc2c(-c3nc4ccccc4[nH]3)cccc2c1`: the GI50 is 7.11 µM in the assay on LOX IMVI melanoma; 7.97 µM with ACHN renal; 5.62 µM in the assay with SF-268 CNS; 1.99 µM with M14 melanoma; 5.01 µM with IGROV1 ovarian; 4.72 µM in the assay with UO-31 renal. The values for the GI50 in the assay on MOLT-4 leukemia, in the assay on MALME-3M melanoma and with SNB-75 CNS were 2.9 µM, 3.81 µM and 2.35 µM, respectively. Moreover, the TGI in the assay on LOX IMVI melanoma is greater than 100 µM; in the assay with ACHN renal, greater than 100 µM; with SF-268 CNS it was greater than 100 µM; with M14 melanoma, 12 µM; in the assay on IGROV1 ovarian, 40.3 µM; in the assay with UO-31 renal, 33.3 µM. The TGI with MOLT-4 leukemia was 83.8 µM; with MALME-3M melanoma it was 34.9 µM; in the assay with SNB-75 CNS, 13.5 µM.

Take `O=C1CCCC(=O)C1=C(O)CCCCCCCCCCc1ccccc1`: the TGI in the assay on LOX IMVI melanoma is greater than 100 µM; in the assay with NCI-H226 lung it was 96.9 µM; in the assay on ACHN renal, greater than 100 µM; in the assay with SF-268 CNS, greater than 100 µM; with M14 melanoma, greater than 100 µM; in the assay with IGROV1 ovarian, greater than 100 µM. The TGI was 60.1 µM with UO-31 renal, greater than 100 µM in the assay on MOLT-4 leukemia and 95.4 µM with SNB-75 CNS.

With `CN1C(=O)c2cc([N+](=O)[O-])ccc2[C@H]2C(=O)c3cc4c(cc3[C@H]21)OCO4`, the GI50 in the assay on LOX IMVI melanoma was 0.0161 µM; in the assay with ACHN renal, 0.0134 µM; in the assay with SF-268 CNS, 0.0243 µM; with M14 melanoma it was less than 0.01 µM; with IGROV1 ovarian it was 0.153 µM; in the assay on UO-31 renal, 0.0409 µM. Moreover, the results for the GI50 in the assay on MOLT-4 leukemia and in the assay with SNB-75 CNS were 0.145 µM and 0.12 µM, respectively. Moreover, the TGI with LOX IMVI melanoma is 0.155 µM; in the assay with ACHN renal it was 0.0463 µM; in the assay with SF-268 CNS, 1.68 µM; with M14 melanoma, 0.037 µM; with IGROV1 ovarian, 12 µM; with UO-31 renal it was 1.51 µM. Besides, the TGI in the assay with MOLT-4 leukemia and in the assay on SNB-75 CNS was greater than 100 µM in each case.

As for `CCCC(=O)Nc1cc([N+](=O)[O-])c([N+](=O)[O-])cc1OC`, the TGI with LOX IMVI melanoma was greater than 100 µM; in the assay with NCI-H226 lung, 51.2 µM; with ACHN renal it was 26.5 µM; in the assay with SF-268 CNS it was 34.6 µM; in the assay with M14 melanoma, 25.6 µM; in the assay with IGROV1 ovarian, 38.9 µM. Also, the TGI in the assay with UO-31 renal was found to be 3.13 µM; in the assay on SNB-75 CNS, 30.3 µM.

Regarding `CCOC(=O)N[C@H]1CCc2cc(O)c(OC)c(OC)c2-c2ccc(SC)c(=O)cc21`, the TGI is greater than 100 µM with LOX IMVI melanoma; 1.25 µM in the assay on NCI-H226 lung; greater than 100 µM with ACHN renal; 37.8 µM with SF-268 CNS; 51.5 µM in the assay on M14 melanoma; greater than 86.9 µM in the assay with IGROV1 ovarian. For the same molecule, the TGI in the assay on UO-31 renal, with MOLT-4 leukemia and with MALME-3M melanoma was greater than 100 µM throughout.

Take `COc1cc(-n2cc(-c3ccc(F)cc3)[nH]c2=S)cc(OC)c1OC`: the GI50 was greater than 100 µM in the assay on LOX IMVI melanoma; greater than 100 µM in the assay with NCI-H226 lung; greater than 100 µM in the assay on ACHN renal; 32.8 µM with SF-268 CNS; 41.6 µM in the assay with IGROV1 ovarian; greater than 100 µM with UO-31 renal. In addition, the GI50 is greater than 100 µM in the assay with MOLT-4 leukemia, greater than 100 µM in the assay with MALME-3M melanoma and 17.9 µM with SNB-75 CNS. Also, the TGI with LOX IMVI melanoma, in the assay with NCI-H226 lung, in the assay with ACHN renal, with SF-268 CNS, with IGROV1 ovarian and in the assay on UO-31 renal was greater than 100 µM throughout. Further, the TGI in the assay with MOLT-4 leukemia is greater than 100 µM; in the assay on MALME-3M melanoma, greater than 100 µM; in the assay with SNB-75 CNS, 46.5 µM.

In the case of `Oc1ccc2ccccc2c1C(c1ccc(Cl)cc1)c1c(O)ccc2ccccc12`, the TGI in the assay on LOX IMVI melanoma worked out at 8.11 µM; with ACHN renal it was 15.4 µM; in the assay with SF-268 CNS, 7.26 µM; with M14 melanoma, 15.2 µM; in the assay with IGROV1 ovarian it was 7.65 µM; in the assay on UO-31 renal, 10.6 µM. In addition, the TGI with MOLT-4 leukemia turned out to be 17.5 µM; with MALME-3M melanoma, 6.71 µM; with SNB-75 CNS, 10.8 µM.

With `CCN(CC)CCC(=O)N1CCc2c([nH]c3ccccc23)C1c1cccnc1` (centres undefined), the TGI in the assay on LOX IMVI melanoma, in the assay with ACHN renal, in the assay with SF-268 CNS, with M14 melanoma, in the assay with IGROV1 ovarian and in the assay with UO-31 renal was greater than 100 µM in each case. For the same molecule, the TGI in the assay with MOLT-4 leukemia and in the assay with SNB-75 CNS was greater than 100 µM each time.

On to `Cc1[nH]n(-c2ccc(S(=O)(=O)O)cc2)c(=O)c1N=Nc1ccccc1`, for which the TGI in the assay with LOX IMVI melanoma, with ACHN renal, with SF-268 CNS, with M14 melanoma, with IGROV1 ovarian and in the assay on UO-31 renal was greater than 100 µM throughout. Further, the TGI in the assay on MOLT-4 leukemia, with MALME-3M melanoma and in the assay with SNB-75 CNS was greater than 100 µM throughout.

As for `Cc1ccc(-c2nc3c(C(=O)NCCN(C)C)cccc3[nH]2)cc1`, the TGI in the assay on LOX IMVI melanoma stood at 24.6 µM; with NCI-H226 lung it was 31.7 µM; in the assay on ACHN renal it was 28.9 µM; in the assay on SF-268 CNS it was 48.9 µM; in the assay on M14 melanoma, 29.2 µM; in the assay on IGROV1 ovarian it was 41.9 µM. Also, the TGI came out at 22.9 µM with UO-31 renal, 18.5 µM in the assay with MOLT-4 leukemia and 52.4 µM in the assay on SNB-75 CNS.

For `O=C1Nc2ccccc2/C1=C/c1cn(C(=O)c2c(Cl)cccc2Cl)c2ccccc12`, the GI50 is 1.59 µM in the assay with LOX IMVI melanoma; 7.48 µM with NCI-H226 lung; 3.17 µM with ACHN renal; 2.38 µM with SF-268 CNS; 2.34 µM in the assay with M14 melanoma; 1.14 µM in the assay on UO-31 renal. Also, the GI50 is 2.82 µM with MOLT-4 leukemia and 2.61 µM in the assay with MALME-3M melanoma. For the same molecule, the TGI in the assay with LOX IMVI melanoma was 3.24 µM; in the assay on NCI-H226 lung, 27 µM; with ACHN renal, 21.7 µM; with SF-268 CNS, 10.6 µM; with M14 melanoma, 8.19 µM; in the assay with UO-31 renal, 7.5 µM. Besides, the TGI with MOLT-4 leukemia was greater than 100 µM; in the assay on MALME-3M melanoma, 14.9 µM.

Turning to `S=P1(c2ccccc2)Nc2ccc(Cl)cc2N1` (centres undefined), the TGI with LOX IMVI melanoma was greater than 100 µM; in the assay on NCI-H226 lung, greater than 100 µM; in the assay with ACHN renal, greater than 100 µM; with SF-268 CNS, greater than 100 µM; in the assay with M14 melanoma, 56.9 µM; in the assay with IGROV1 ovarian it was greater than 100 µM. In addition, the TGI in the assay on UO-31 renal, with MOLT-4 leukemia and in the assay with MALME-3M melanoma was greater than 100 µM throughout.

For the molecule `COCOCc1cc(OCc2ccccc2)c(OC)cc1Br`, the TGI with LOX IMVI melanoma, with ACHN renal, in the assay with SF-268 CNS, with IGROV1 ovarian, in the assay on MALME-3M melanoma and with SNB-75 CNS was greater than 100 µM each time.
